Laboratory results as given in a melting point compilation (Tetko et al.; mined from patent text by program, amines drawn as free bases though some values may be those of a salt).

SMILES	melting point
O=C(c1cc(N2CCC(F)(F)CC2)ccn1)N(O)Cc1ccccc1	90 to 95 °C
O=c1ccn(CCO)c(C(O)c2ccccc2F)c1OCc1ccccc1 (stereo not drawn)	164 to 166 °C
CN1C(=O)C(NC(=O)Nc2cccc(F)c2)N=C(c2ccccc2)c2ccccc21 (stereo not drawn)	252 to 254 °C
Cc1cc2oc(=O)c3c(c2cc1Cl)CC(N1CC2CCCC(C2)C1)NC3 (stereo not drawn)	147 to 149 °C
N#Cc1cccc(C2=Nc3ccc(-c4ccc(-c5ccccc5)cc4)cc3NC(=O)C2)c1	251 to 253 °C
CCOC(=O)c1csc([N+](=O)[O-])c1Br	94 to 95 °C
CCCCCCCCCCCCCCCCCc1nnc2n1-c1sc(CC)cc1C(c1ccc(C)cc1)=NC2	78 to 80 °C
CCNC(=O)N(C)Cc1cccc2c1C(=O)N(C1CCC(=O)NC1=O)C2=O (stereo not drawn)	219 to 221 °C
CCNC(=S)Nc1nc2ccc(OC(F)(F)F)cc2s1	199 to 200 °C
N#Cc1cnc2c(=O)c3ccccc3oc2c1	220 to 226 °C
CCOC(=O)ON=C1Cc2ccccc2N(C(N)=O)c2ccccc21	189 to 190 °C
COC(=O)CC(=O)CN1C(=O)c2ccccc2C1=O	139 to 140 °C
COC(=O)CCc1ccc(C(=O)Cc2ccccc2)cc1	77 to 78 °C
CC(C)(C)OC(=O)N1CC=C(c2ccc(N)c([N+](=O)[O-])c2)CC1	111 to 112 °C
CC(C#Cc1cccc(Oc2ccc(F)cc2)c1)N(O)C(N)=O (stereo not drawn)	137 to 138 °C
CCCn1c(=O)c2c(N)n(CCCl)nc2n(Cc2ccccc2)c1=O	126 to 128 °C
CCC(C)(C)Cc1ccc(C(=O)O)c(=O)[nH]1	170 to 172 °C
Cc1cc(F)ccc1-c1ccc(S(=O)(=O)N2c3ccccc3CC2C(=O)NCc2ccccc2NCCC(=O)O)cc1 (stereo not drawn)	118 to 126 °C
C[C@@H]1CN(C(=O)[C@@](C)(O)C(F)(F)F)[C@@H](C)CN1S(=O)(=O)c1ccc(F)cc1	174 to 175 °C
CCc1nc2c(N)nc3ccc(OCc4ccccc4)cc3c2n1CCCCNC(=O)c1ccccc1	226 to 230 °C
C=CCOC(=O)C1=C2c3ccccc3CC[C@@H]2[C@@H]2[C@@H]([C@@H](C)O)C(=O)N12	133 to 134 °C
O=CC(=C(c1ccc(F)cc1)c1ccc(F)cc1)n1nnnc1-c1ccccc1	193 to 194 °C
Cc1ccc(S(=O)(=O)N2CCN(S(=O)(=O)c3ccc(C)cc3)CC3CCC(CN(S(=O)(=O)c4ccc(C)cc4)CC2)O3)cc1	175 to 178 °C
O=C(O)CCCCCNC(=O)OCc1ccccc1	54 to 55.5 °C
CC(=NOCCC(N)=O)c1ccc(Cl)cc1	149 to 150 °C

SMILES	melting point
O=C(NCc1ccncc1)c1[nH]c2ccc(Cl)cc2c1S(=O)c1ccccc1 (stereo not drawn)	233 to 235 °C
Cc1cc2c(cc1F)NC(=O)C2	168 to 171 °C
CCCCCCCCCCCCCCCCCCOc1cc(OCC(=O)O)cc(C(=O)N(CC(=O)O)CC(=O)O)c1	134 to 136 °C
COc1cc2c(cc1OC)C(c1ccccc1OC)=NN=C(C)C2	119 to 121 °C
COc1cc(OC)c2c(=O)[nH]c(-c3ccc(N4C[C@@H](C)N(C(C)=O)[C@@H](C)C4)cc3)nc2n1	279 to 280 °C
COc1cccc(C23CCCC(C2)NC3=O)c1 (stereo not drawn)	109 to 111 °C
CC(Cn1cc(-c2ccccc2)c2ccccc2c1=O)NCc1ccccc1 (stereo not drawn)	118 °C
N#Cc1cc(F)c(N(CCO)CCO)c(F)c1	63 to 65 °C
COc1cc(COc2nn(-c3ccccc3)cc2/C=C/c2coc(C(C)C)n2)ccc1OCc1nc(-c2ccc(CC(=O)O)cc2)oc1C	116 to 118 °C
CCOC(=O)C(CC=C(C)C=CC1=C(C)CCCC1(C)C)C(C)=O (stereo not drawn)	152 °C
COc1cc2c(cc1C(F)(F)F)N(C(=O)Nc1ccc(-c3ccccn3)s1)CC2	205 to 215 °C
CCOC(=O)C1(Nc2ccc(Oc3ccccc3)cc2)CC1	80 °C
CC(C)(C)c1ccc(C(=O)Nc2cn3nc(NCc4ccncc4)ccc3n2)cc1	222 to 223 °C
COc1ccc2[nH]c(C(=O)N3CC(CCl)c4c3cc(O)c3ncccc43)cc2c1 (stereo not drawn)	224 to 227 °C
CC[C@@H]1O[C@](/C=C/C2CC2)(C(F)(F)F)c2cc(F)ccc2NC1=O (relative stereo)	148 to 149 °C
O=C1N(CC2CCCO2)c2cccc(Br)c2C12COc1cc3c(cc12)CCO3 (stereo not drawn)	137 to 141 °C
CCCCCCC(C)Oc1ccc(N=Cc2ccccc2)cc1 (stereo not drawn)	47.3 °C
COCCNCC(O)c1ccccc1 (stereo not drawn)	77 to 80 °C
CN(C)CCCNC(=O)c1ccc(-c2ccc3nnn(Cc4ccc5ncccc5c4)c3n2)cc1F	148 to 150 °C
CCCc1nnc2n1-c1ccccc1CS2	114 °C
CC(=O)NC(C)(C(=O)O)C(C)C (stereo not drawn)	189 to 190 °C
CCC(O)CN1N=C(c2ccc(Cl)cc2)C2CCC2C1=O (stereo not drawn)	116 to 119 °C
O=C1NCCC(C(=O)c2ccc(Cc3ccc(F)cc3)o2)=C1O	166 to 168 °C
C=CCC1(C(=O)NCc2ccccn2)c2ccccc2-c2ccccc21	110 to 111 °C
Cn1cnc(S(=O)(=O)Nc2ccc(OCCN3CCN(c4nsc5ccccc45)CC3)cc2)c1	176 °C

SMILES	melting point
CC(C)C(=O)CCC(=O)c1ccc(F)cc1	47 to 49 °C
CC[C@H]1[C@H](O)CC(=O)N1c1ccc(C#N)c(C(F)(F)F)c1	111 to 112 °C
CCCCC(=O)N(C(=O)NC(=O)c1ccccc1[N+](=O)[O-])c1ccc(Oc2ncc(Cl)cn2)c(C)c1	69 to 75 °C
COc1cc2c(cc1Br)C1=C(c3cccs3)C3CSCCN(C(C)(C)C)C(=O)C3N1CC2 (stereo not drawn)	233 to 235 °C
c1ccc(-c2noc3ccccc23)c(CNCc2ccccc2-c2noc3ccccc23)c1	138 °C
NC1=NS(=O)N=C1NCCCOc1cccc2c(N3CCOCC3)nccc12 (stereo not drawn)	222 to 224 °C
CCCCc1[nH]c(CC)nc(=O)c1Cc1ccc(-c2ccccc2C(=O)O)cc1	207 °C
Cc1cccc2c(C=O)cc(C(C)C)c(O)c12	125 to 128 °C
COC1=CC2=CCC3C(C(F)CC4(C)C(=O)CCC34)C2CC1 (stereo not drawn)	173 °C
CNC(=O)ON=C1SCOC1C (stereo not drawn)	70 to 71.5 °C
CCCOc1cc(C(=O)O)ccc1-c1ccc(-c2ccccc2)c(-c2ccc3c(c2)C(C)(C)CCC3(C)C)c1	216 to 218 °C
COC(=O)C=Cc1cccc2[nH]ccc12	113 to 115 °C
Cc1cc2c(cc1C)C(C(F)(F)F)(C(F)(F)F)c1cc3c(cc1O2)Oc1cc(C)c(C)cc1C3(C(F)(F)F)C(F)(F)F	242 to 243 °C
COc1ccc(-c2sc3cccnc3c2OC(C)=O)cc1	146 to 148 °C
NC(=O)CCCC1(c2ccccc2)CC(O)=CC(=O)O1 (stereo not drawn)	51 to 54 °C
CCN1CCN(C(=O)c2ccc(-c3cc(C(=O)Cc4cccc(C)n4)ccn3)cc2)CC1	90 °C
O=C(CCCCCCCCCCCCC(=O)ON1C(=O)CCC1=O)OCc1ccccc1	61.5 to 62.5 °C
O=C(O)Cn1cc(C(=O)O)c(=O)c2cc(O)ccc(=O)c21	> 250 °C
Cc1cc(C)c2c(-c3ccc(C(C)C)cc3)csc2c1	83 to 84 °C
Cc1cccc2c(=O)n(S(=O)(=O)c3ccc(Cl)cc3)c(=O)[nH]c12	221 to 225 °C
COc1cc(C=CNC(C)=O)ccc1OCC1CO1 (stereo not drawn)	173 to 174 °C
Nc1ncnc2c1c(-c1cc(F)c(O)c(F)c1)nn2Cc1oc2ccc(F)cc2c(=O)c1-c1cccc(F)c1	274 to 278 °C
Nn1c(=O)c2cc(F)c(S(=O)(O)=S)nc2n(C2CC2)c1=O	167 to 169 °C
CC1Cc2cc3c(cc2C(c2ccccc2)N1)OCO3 (stereo not drawn)	89 to 91 °C
CCCNCCc1ccc(NS(=O)(=O)c2ccc(Cl)cc2Cl)cc1	165 to 168 °C

SMILES	melting point
CNC(=NC#N)NCc1ncc(-c2csc(N=C(N)N)n2)s1	258 to 259 °C
CCOc1ccc(CCCOc2nn(C)cc2CC(=O)O)c(Oc2ccc(Cl)cc2Cl)n1	81 to 83 °C
COc1ccc(C=Cc2ccc(CBr)c(Cl)c2)c(Cl)c1	106 to 108 °C
CCC(=O)N[C@@H]1CCc2ccc(OC)cc2[C@H]1O	162 to 163 °C
CN(C(=O)OCc1ccccc1)c1ccc2c(c1)C(=O)C1(CC1)O2	79 to 81 °C
CC(=O)Nc1csc(-c2ccc3c(=O)n(CC(C)C)c(CNC(=O)OC(C)(C)C)c(-c4ccccc4)c3c2)n1	227 to 228 °C
CCOC1OC(O)C(F)(F)C(F)(F)C1(F)F (stereo not drawn)	84 to 86 °C
COC(=O)c1cc(C)cc(OC)c1C1=C(OC)C(=O)c2c(OC(C)=O)cccc2C1=O	127 to 128 °C
CC(C)(C)NS(=O)(=O)c1ccc2c(NS(=O)(=O)N3CCOCC3)cccc2c1O	105 to 110 °C
Nc1nc(OC2CCCC2)c2ncn([C@@H]3C[C@H](CO)[C@@H](O)C3)c2n1	181 to 182 °C
CCOc1cc2c(cc1OCC)C(C(C#N)SCCCO)=NCC2 (stereo not drawn)	100 to 105 °C
C[C@@H](N)C(=O)N(O)C(=O)OC(C)(C)C	115 to 117 °C
Cc1cccc(C)c1NNC(=O)OCCCl	74 to 75 °C
O=C(O)c1cn(Cc2ccc(Oc3ccccc3)cc2)nc1OCc1ccc(Oc2ccccc2)cc1	141 to 142 °C
CNC(=O)c1cccc(NC(=O)Cc2ccc(C)cc2)c1	174 to 175 °C
CCOC(=O)c1ccc(N2CCC(NC[C@H](O)COc3ccc(O)c(S(=O)(=O)NC)c3)CC2)cc1	87 °C
CC1(C)CCC(C)(C)c2cc(N(Cc3cccs3)C(=O)Nc3ccc(C(=O)O)cc3)ccc21	167 to 170 °C
CC(C)(O)c1ccc(CC(=O)Nc2cccnc2Oc2cccnc2)cc1	122 to 124 °C
COC(=O)[C@@](C#N)(CCN(C)C)C(c1ccccc1OC)c1cccc2ccccc12 (single isomer, unassigned)	142 to 144 °C
COc1ccc(CONS(C)(=O)=O)cc1	114 to 116 °C
O=S(=O)(Nc1ccc(Cl)c(Cl)c1)c1cc(S(=O)(=O)Nc2ccc(Cl)c(Cl)c2)c2cc(O)ccc2c1	158 to 160 °C
N=C(N)NCCCOc1ccc2c(c1)CC(CC(=O)O)C(=O)N2 (stereo not drawn)	178 to 179 °C
O=S(Cc1ccccn1)c1ccc(F)cc1 (stereo not drawn)	92 to 94 °C
